{"source": "patent US20130273057A1", "about": "“METHODS AND COMPOSITIONS FOR THE TREATMENT AND DIAGNOSIS OF VASCULAR INFLAMMATORY DISORDERS OR ENDOTHELIAL CELL DISORDERS” (Beth Israel Deaconess Medical Center, Inc., priority 2007, published 2013)", "key": {"p120": {"system": "p120", "assay": "p120 tyrosine phosphorylation (4G10 immunoprecipitation/western blot)", "format": "cell-based, human", "conditions": "10 μM SU5416 2 hrs", "protocol": "(§1) FIGS. 14A-14C show transactivation of VEGFR is critical for tyrosine phosphorylation of VE-cadherin and p120 but not involved in MLC signaling. […] To preserve tyrosine phosphorylation, cells were then treated with 2 mM Na3VO4/2 mM H2O2 for 5 mins prior to lysis (Lampugnani, Corada et al., J. Cell Sci. 110 (Pt 17): 2065-2077, (1997)). A portion of the clarified total lysates was analyzed by western blot using an anti-phospho MLC antibody. The membrane was stripped and reblotted with anti GAPDH antibody. In FIG. 14B VE-cadherin was immunoprecipitated from lysates prepared in FIG. 14A. Tyrosine phosphorylation was detected by 4G10 antibody (FIG. 14B, i). The membrane was stripped and reblotted with an anti VE-cadherin antibody (FIG. 14B, ii). […] 4G10 immunoprecipitates were fractioned by SDS-PAGE, and p120 was detected by western blot. (−): No thrombin; (T): 5 U/ml thrombin. Molecular weights are in kDa.\n(§2) (MLC) upon thrombin stimulation, a procedure derived from a published protocol was used (Ukropec et al., J. Biol. Chem. 275: 5983-5986, (2000)). […] Cells were then washed with PBS containing Mg^2+/Ca^2+ (GIBCO 14040-141) supplemented with 1 mM Na3VO4 and 0.2 mM H2O2 at room temperature for 5 mins. […] After SDS-PAGE, phosphorylation of VE-cadherin was detected by western blotting with the antibody 4G10. […]"}, "Tie-2": {"system": "Tie-2", "assay": "Thrombin-induced receptor tyrosine kinase phosphorylation in HUVECs (4G10 immunoprecipitation/western blot)", "format": "cell-based, human", "conditions": "confluent HUVECs pretreated with 10 μM SU5416 for 2 hrs; 5 U/ml thrombin", "text": "(§3) (−): No thrombin; (T): 5 U/ml thrombin. Molecular weights are in kDa."}, "MER": {"system": "MER", "assay": "Thrombin-induced receptor tyrosine kinase phosphorylation in HUVECs (4G10 immunoprecipitation/western blot)", "format": "cell-based, human", "conditions": "confluent HUVECs pretreated with 10 μM SU5416 for 2 hrs; 5 U/ml thrombin", "text": "as §3"}, "VEGFR2": {"system": "VEGFR2", "assay": "Thrombin-induced receptor tyrosine kinase phosphorylation in HUVECs (4G10 immunoprecipitation/western blot)", "format": "cell-based, human", "conditions": "confluent HUVECs pretreated with 10 μM SU5416 for 2 hrs; 5 U/ml thrombin", "text": "as §3"}, "Tie-1 endodomain": {"system": "Tie-1 endodomain", "assay": "Thrombin-induced receptor tyrosine kinase phosphorylation in HUVECs (4G10 immunoprecipitation/western blot)", "format": "cell-based, human", "conditions": "confluent HUVECs pretreated with 10 μM SU5416 for 2 hrs; 5 U/ml thrombin", "text": "as §3"}, "myosin light chain (MLC)": {"system": "myosin light chain (MLC)", "assay": "Western blot of MLC phosphorylation upon thrombin stimulation", "format": "cell-based, human", "conditions": "10 μM SU5416 pretreatment; thrombin 5 minutes; serine 19", "protocol": "as §1, §2"}, "HUVEC monolayer [1]": {"system": "HUVEC monolayer", "assay": "Immunostaining of VE-cadherin and actin stress fiber, endothelial gap formation", "format": "cell-based, human", "conditions": "10 μM SU5416 2 hours", "protocol": "VE-cadherin, actin stress fiber, and nuclei were stained with anti VE-cadherin antibody (green), phalloidin (red), and DAPI (blue), respectively.\nEGM2-MV medium (600 μl) was added to the lower chamber. An endothelial monolayer was allowed to establish overnight. […] Each slide chamber was seeded with 200,000 HUVECs in one ml of EGM2-MV medium. An endothelial monolayer was allowed to established overnight. […] After 15 mins of stimulation, cells were fixed with 4% paraformaldehyde in PBS for 15 mins and permeabilized with 0.5% Triton X-100 in PBS for 5 mins. […] After 3 washes with 0.5% FBS/PBS, the samples were mounted in a drop of ProLong Gold antifade reagent with DAPI (Probes, P36931). Images were recorded using a fluorescence microscope (Nikon Corporation, Tokyo, Japan) and coupled to a Spot RT camera (Diagnostic Instruments Inc, Sterling Heights, Mich.). Western blotting: To examine the phosphorylation status of VE-Cadherin and myosin light chain"}, "[2]": {"system": "PAR-1 induced vascular leak in mice", "assay": "PAR-1 induced vascular leak in mouse ears (Evan blue)", "format": "in vivo", "conditions": "ear pretreated with 10 μl of 10 μM SU5416 for one hour; PAR-1 activating peptide and Evan blue by tail vein; about 15 minutes", "protocol": "Then 20 μl of 5 mM PAR-1 activating peptide and 500 μl 0.1% Evan blue was injected into the mouse by tail vein injection. About 15 minutes later the extent of vascular leaks in the ears was documented by photography."}, "VEGFR-2": {"biological_target": "VEGFR-2 (Homo sapiens, UniProt P35968)", "sequence (P35968 20-1356, species assumed)": "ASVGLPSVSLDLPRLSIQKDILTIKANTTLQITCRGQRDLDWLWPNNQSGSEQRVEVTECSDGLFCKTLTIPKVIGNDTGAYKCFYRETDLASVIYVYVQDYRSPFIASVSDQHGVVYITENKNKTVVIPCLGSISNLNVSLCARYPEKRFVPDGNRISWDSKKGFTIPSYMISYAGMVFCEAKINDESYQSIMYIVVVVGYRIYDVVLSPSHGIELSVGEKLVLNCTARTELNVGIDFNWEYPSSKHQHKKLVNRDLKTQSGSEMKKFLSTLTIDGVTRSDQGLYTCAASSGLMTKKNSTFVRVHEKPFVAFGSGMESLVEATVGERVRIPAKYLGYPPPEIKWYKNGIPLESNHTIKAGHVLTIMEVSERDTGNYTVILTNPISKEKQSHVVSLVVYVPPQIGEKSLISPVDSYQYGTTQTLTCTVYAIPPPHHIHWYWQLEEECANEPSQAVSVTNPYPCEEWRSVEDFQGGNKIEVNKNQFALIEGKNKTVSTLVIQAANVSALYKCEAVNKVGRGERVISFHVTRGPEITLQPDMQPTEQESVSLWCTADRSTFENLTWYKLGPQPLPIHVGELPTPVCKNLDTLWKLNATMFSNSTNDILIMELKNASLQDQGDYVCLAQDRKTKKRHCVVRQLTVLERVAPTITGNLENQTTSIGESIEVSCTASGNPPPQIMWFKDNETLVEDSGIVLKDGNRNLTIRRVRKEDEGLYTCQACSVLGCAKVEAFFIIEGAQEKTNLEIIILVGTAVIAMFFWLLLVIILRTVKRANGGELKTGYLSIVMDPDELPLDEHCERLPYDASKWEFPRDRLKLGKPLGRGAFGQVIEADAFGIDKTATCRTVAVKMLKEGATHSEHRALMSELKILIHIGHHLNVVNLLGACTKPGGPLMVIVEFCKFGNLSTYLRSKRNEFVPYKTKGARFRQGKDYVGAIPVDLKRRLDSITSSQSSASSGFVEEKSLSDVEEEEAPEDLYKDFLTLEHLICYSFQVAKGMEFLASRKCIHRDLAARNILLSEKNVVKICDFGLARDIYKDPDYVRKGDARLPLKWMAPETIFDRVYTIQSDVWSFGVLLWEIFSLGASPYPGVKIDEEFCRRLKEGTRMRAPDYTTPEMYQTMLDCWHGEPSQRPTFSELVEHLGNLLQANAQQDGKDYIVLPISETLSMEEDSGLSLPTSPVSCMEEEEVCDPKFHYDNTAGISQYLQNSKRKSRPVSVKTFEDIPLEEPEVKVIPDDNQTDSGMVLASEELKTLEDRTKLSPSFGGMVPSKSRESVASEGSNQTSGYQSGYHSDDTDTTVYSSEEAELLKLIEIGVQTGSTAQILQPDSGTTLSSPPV", "conditions": "cited from earlier work"}, "several xenograph models": {"system": "several xenograph models", "conditions": "intra-peritoneal injection twice weekly, 50 mg/kg; cited from earlier work"}, "HUVEC monolayer [3]": {"system": "HUVEC monolayer", "assay": "Permeability assay, FITC-BSA across HUVEC monolayer in Transwell", "format": "cell-based, human", "conditions": "10 μM SU5416 1 hour, 5 U/ml thrombin 10 mins", "protocol": "FIG. 12 is a graph showing the thrombin induced-endothelial barrier dysfunction requires VEGFR activity. Confluent HUVEC monolayers were established in Transwell inserts. […] After 10 minutes of stimulation, fluorescein-labeled BSA that had diffused to the lower chamber was detected by fluorescence measurement and used as a surrogate marker of endothelial permeability. T: thrombin; SU: SU5416.\nPermeability assay: 50,000 HUVECs were seeded in a Transwell insert (Corning 3496) in 100 μl of full EGM2-MV medium. EGM2-MV medium (600 μl) was added to the lower chamber. An endothelial monolayer was allowed to establish overnight. […] The inserts were then immediately transferred to a new well containing 500 μl PBS (with Mg^2+/Ca^2+; GIBCO 14040-141). After 10 mins of incubation, the Transwells were removed, and fluorescence of the PBS in the lower chamber was measured using a CytoFluor Multiwell Plate Reader (Series 4000) with the following settings: excitation λ 485/20 […], emission λ 530/25. Immunostaining: LabTek slide chambers (177429) were precoated with 50 μg/ml rat tail collagen type-1 (BD Biosciences, 354236) at 37° C. for 1 hour according to the manufacturer's protocol. […] Images were recorded using a fluorescence microscope (Nikon Corporation, Tokyo, Japan) and coupled to a Spot RT camera (Diagnostic Instruments Inc, Sterling Heights, Mich.). […]"}, "FGF R": {"system": "FGF R", "conditions": "cited from earlier work"}, "VE-cadherin": {"system": "VE-cadherin", "assay": "VE-cadherin tyrosine phosphorylation (immunoprecipitation/4G10 western blot)", "format": "cell-based, human", "conditions": "10 μM SU5416 pretreatment", "protocol": "as §1, §2"}, "PDGF receptor": {"system": "PDGF receptor", "conditions": "relative to VEGFR-2; cited from earlier work"}, "[4]": {"conditions": "thrombin or PAR-1 AP 30 μM, 15 mins"}}}
{"compound": "Cc1cc(C)c(/C=C2\\C(=O)Nc3ccccc32)[nH]1", "note": "[SU5416]", "values": [{"measurement": "thrombin-induced tyrosine phosphorylation of p120", "setting": "p120", "result": "significantly blocked"}, {"measurement": "thrombin-induced phosphorylation of Tie-2", "setting": "Tie-2", "result": "partially blocked"}, {"measurement": "activation of MER by thrombin stimulation", "setting": "MER", "result": "completely blocked"}, {"measurement": "phosphorylation of VEGFR2 induced by thrombin", "setting": "VEGFR2", "result": "significantly attenuated"}, {"measurement": "thrombin-induced phosphorylation of Tie-1 endodomain", "setting": "Tie-1 endodomain", "result": "partially blocked"}, {"measurement": "serine phosphorylation of MLC induced by thrombin", "setting": "myosin light chain (MLC)", "result": "did not affect"}, {"measurement": "stress fiber formation induced by thrombin", "setting": "HUVEC monolayer [1]; thrombin 15 mins", "result": "did not block"}, {"measurement": "VE-cadherin disruption induced by thrombin or PAR-1 AP", "setting": "HUVEC monolayer [1]; [4]", "result": "completely blocked"}, {"measurement": "intercellular gap formation induced by thrombin or PAR-1 AP", "setting": "HUVEC monolayer [1]; [4]", "result": "no intercellular gaps formed"}, {"measurement": "PAR-1 induced vascular leak in mice", "setting": "[2]", "result": "inhibited"}, {"measurement": "blocking VEGFR-2 function in cells", "setting": "VEGFR-2", "result": "most effective"}, {"measurement": "tumor progression in xenograph models", "setting": "several xenograph models", "result": "effectively blocks"}, {"measurement": "thrombin-induced increase in endothelial permeability", "setting": "HUVEC monolayer [3]", "result": "completely blocked"}, {"measurement": "inhibition of FGF R", "setting": "FGF R", "result": "poor inhibitor"}, {"measurement": "thrombin-induced tyrosine phosphorylation of VE-cadherin", "setting": "VE-cadherin", "result": "significantly blocked"}, {"measurement": "inhibition of PDGF receptor in cell based assays, times less effective", "setting": "PDGF receptor", "result": 20, "unit": "times"}]}
